Data reported in patent US7056917B2, “Drug efflux pump inhibitor” (Daiichi Pharmaceutical Co., Ltd., priority 2001, dated 2006).

Tested on: Pseudomonas aeruginosa PAM 1723 (a strain highly expressing MexAB-OprM drug efflux pump)
Experiment: Combined use of drug efflux pump inhibitor and disinfectant, broth dilution method
Assay type: cell-based
Conditions: for enhancement of activity of the disinfectant on PAM 1723: combined use with 10 μg/ml of the compound of Example 26
Method: Effect of Combined Use of Drug Efflux Pump Inhibitor and Disinfectant
Effects of a combined use of a drug efflux pump inhibitor and alkyldiaminoethylglycine hydrochloride (AEG, trade name: Tego 51) or chlorhexidine gluconate (CHG, trade name: Hibiten) on Pseudomonas aeruginosa PAM 1723 (a strain highly expressing MexAB-OprM drug efflux pump) was determined by the broth dilution method. The compound of Example 26 was added at a final concentration of 10 μg/ml to Mueller-Hinton broth (MHB) containing a disinfectant at a concentration after 2-fold serial dilution. The amount of the test bacteria inoculated was 1×10^6 CFU/ml, and after standing cultivation at 37° C. for 18 hours, the culture was observed by visual inspection. The minimum concentration that gave no turbidity as in the control of MHB was determined as MIC.

[1] = combined with compound of Example 26 at 10 μg/ml, PAM 1723, 37° C. 18 hours
[2] = compound of Example 26 at 10 μg/ml, PAM 1723
[3] = disinfectant alone, PAM 1723, 37° C. 18 hours

Row | Molecule | enhancement of activity of the disinfectant on PAM 1723 | MIC CHG Combined use [1] [µg/mL] | CHG Ratio of MIC values for single use of the disinfectant and combined use with the compound of Example 26 [2] | MIC CHG Single use [3] [µg/mL] | MIC AEG Combined use [1] [µg/mL] | AEG Ratio of MIC values for single use of the disinfectant and combined use with the compound of Example 26 [2] | MIC AEG Single use [3] [µg/mL]
1 | N=C(NCCCCCCNC(=N)NC(=N)Nc1ccc(Cl)cc1)NC(=N)Nc1ccc(Cl)cc1.O=C(O)[C@H](O)[C@@H](O)[C@H](O)[C@H](O)CO.O=C(O)[C@H](O)[C@@H](O)[C@H](O)[C@H](O)CO [CHG, chlorhexidine gluconate] | four times | 4 | 4 | 16 |  |  | 
2 | alkyldiaminoethylglycine hydrochloride [AEG] | two times |  |  |  | 32 | 2 | 64
